Reference: ChEMBL document CHEMBL5729205, “Rho-associated protein kinase inhibitor, pharmaceutical composition comprising same, and preparation method and use thereof” (2022)

Biological target: Rho-associated protein kinase 2 (Homo sapiens, UniProt O75116)
Experiment: Biological Assay: The kinase IC50 was determined by a commercialized CISBIO kinase detection kit, HTRF KinEASE-STK S2 kit (62ST2PEC). ROCK2 (01-119) employed in the reaction was purchased from Carna Biosciences.Before the assay, the following working solutions as needed were formulated with corresponding reagents according to the instruction of the kinase detection kit: 1×kinase buffer, 5×STK-52 substrate working solution (1.5 μM) and 5×ATP working solution (1.5 μM), 5×ROCK2 kinase working solution, 4×Streptavidin-XL665 working solution, and 4×STK-Ab-Cryptate 2 detection solution. Then the assay was performed according to the following procedure.A solution of a compound at a concentration of 10000 nM was prepared with the 1×kinase buffer containing 2.5% DMSO. Gradient dilution of the solution of the compound was performed with the kinase buffer containing DMSO, so as to obtain solutions of a test compound at 9 different concentrations. In addition to wells of test compounds, a positive well (containing all the reagents except the compound) and a negative well (containing all the reagents except the test compound and kinase) were set. Except for the control wells (positive and negative wells), a solution of a test compound (4 μL) was added to each of the reaction wells, and a solution of 2.5% DMSO was added to the control wells. Then the substrate (2 μM, i.e., 2 μL. 5×STK-S2 substrate working solution) was added to each of the reaction wells. The 5×ROCK2 kinase working solution (2 μL, containing 1.4 ng ROCK2 kinase) was added to each of the reaction wells except for the negative well, the volume of which was made up with the 1×kinase buffer (2 μL). The 5×ATP working solution (2 μL) was added to each of the reaction wells, and the mixtures were incubated at room temperature for 2 hours. After the kinase reaction was complete, the 4×Streptavidin-XL665 working solution was added to each of the reaction wells, the solutions were mixed, followed by immediate addition of the 4×STK-Ab-Cryptate 2 detection solution (5 μL), and the mixtures were incubated at room temperature for 1 hour. The fluorescence signal was read on ENVISION (Perkinelmer) (excitation wavelength: 320 nm, and emission wavelength: 665 nm and 615 nm). The inhibitory rate in each well was calculated based on the fluorescence intensity value: ER (Emission Ratio)=(fluorescence intensity at 665 nm/fluorescence intensity at 615 nm); inhibitory rate=(ERpositive−ERtest compound)/(ERpositive−ERnegative)*100%. Curves were plotted and fitted to obtain the median inhibitory concentration (IC50) of each teat compound with the PRISM 5.0 software.

Chain of Rho-associated protein kinase 2 (O75116 whole entry): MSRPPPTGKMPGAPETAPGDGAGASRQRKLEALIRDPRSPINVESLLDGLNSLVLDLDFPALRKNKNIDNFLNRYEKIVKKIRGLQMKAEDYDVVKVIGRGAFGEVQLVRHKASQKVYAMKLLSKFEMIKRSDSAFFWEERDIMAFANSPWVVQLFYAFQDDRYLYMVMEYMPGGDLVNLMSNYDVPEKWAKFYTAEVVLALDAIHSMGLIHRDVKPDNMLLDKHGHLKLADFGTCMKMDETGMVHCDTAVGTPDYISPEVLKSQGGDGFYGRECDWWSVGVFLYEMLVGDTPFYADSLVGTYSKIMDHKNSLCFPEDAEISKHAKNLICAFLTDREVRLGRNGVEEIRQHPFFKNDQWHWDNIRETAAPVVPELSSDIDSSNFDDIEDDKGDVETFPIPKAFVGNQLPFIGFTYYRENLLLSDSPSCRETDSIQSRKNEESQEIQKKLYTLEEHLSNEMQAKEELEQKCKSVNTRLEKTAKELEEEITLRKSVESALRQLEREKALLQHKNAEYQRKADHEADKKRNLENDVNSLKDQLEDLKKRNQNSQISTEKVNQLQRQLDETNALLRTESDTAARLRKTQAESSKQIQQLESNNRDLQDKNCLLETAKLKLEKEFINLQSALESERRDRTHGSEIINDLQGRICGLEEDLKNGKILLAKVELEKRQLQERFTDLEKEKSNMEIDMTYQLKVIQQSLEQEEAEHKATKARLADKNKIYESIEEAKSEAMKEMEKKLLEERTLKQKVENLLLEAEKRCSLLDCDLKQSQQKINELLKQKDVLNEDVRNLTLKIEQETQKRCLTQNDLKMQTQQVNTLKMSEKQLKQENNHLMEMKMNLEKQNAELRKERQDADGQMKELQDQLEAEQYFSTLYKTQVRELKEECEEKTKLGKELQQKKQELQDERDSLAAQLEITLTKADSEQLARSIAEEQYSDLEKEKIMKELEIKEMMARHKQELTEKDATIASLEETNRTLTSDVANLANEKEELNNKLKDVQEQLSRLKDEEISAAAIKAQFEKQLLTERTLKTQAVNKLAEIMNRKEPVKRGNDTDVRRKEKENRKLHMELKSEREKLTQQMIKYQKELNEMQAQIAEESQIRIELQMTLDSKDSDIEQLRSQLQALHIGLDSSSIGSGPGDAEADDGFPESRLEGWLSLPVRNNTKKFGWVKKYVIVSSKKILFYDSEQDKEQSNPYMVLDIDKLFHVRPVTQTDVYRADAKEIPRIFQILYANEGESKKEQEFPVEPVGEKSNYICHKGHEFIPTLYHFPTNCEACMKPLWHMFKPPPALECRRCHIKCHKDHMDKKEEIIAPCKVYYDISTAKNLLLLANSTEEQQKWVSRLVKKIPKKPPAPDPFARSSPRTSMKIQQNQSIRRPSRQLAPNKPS

Compound	IC50 [µM]
O=C(c1cccnc1)N1Cc2ccc(-c3nccc(Nc4ccc(-c5cn[nH]c5)cc4)n3)cc2C1	0.393
O=C(Oc1ccccc1)N1Cc2ccc(-c3nccc(Nc4ccc(-c5cn[nH]c5)cc4)n3)cc2C1	0.114
O=C(c1ccncc1)N1Cc2ccc(-c3nccc(Nc4ccc(-c5cn[nH]c5)cc4)n3)cc2C1	0.313
O=C(OC1CC(F)(F)C1)N1Cc2ccc(-c3nccc(Nc4ccc5[nH]ncc5c4)n3)cc2C1	0.019
CN1Cc2nc(-c3ccc4cc(C(=O)N5CC(F)(F)C5)n(C)c4c3)nc(Nc3ccc(-c4cn[nH]c4)cc3)c2C1	0.014
O=C(C1CC(F)(F)C1)N1Cc2ccc(-c3nc(Nc4ccc(-c5cn[nH]c5)cc4)c4[nH]ccc4n3)cc2C1	0.029
CC1(C(=O)N2Cc3ccc(-c4nccc(Nc5ccc(-c6cn[nH]c6)cc5)n4)cc3C2)CC(F)(F)C1	0.022
Cc1cnc(-c2ccc3cc(C(=O)N4CC(F)(F)C4)n(C)c3c2)nc1Nc1ccc(-c2cn[nH]c2)cc1	0.019
CCn1c(C(=O)N2CC(F)(F)C2)cc2ccc(-c3nccc(Nc4ccc(-c5cn[nH]c5)cc4)n3)cc21	0.118
COc1cc(-c2cn[nH]c2)ccc1Nc1ccnc(-c2ccc3c(c2)CN(C(=O)C2CC(F)(F)C2)C3)n1	0.021
CC1(C(=O)N2CCc3ccc(-c4ncc(F)c(Nc5ccc(-c6cn[nH]c6)cc5)n4)cc3C2)CC(F)(F)C1	0.331
Cn1c(C(=O)N2CC(F)(F)C2)cc2ccc(-c3nccc(Nc4ccc(-c5cn[nH]c5)cc4O)n3)cc21	0.034
CN1Cc2nc(-c3ccc4c(c3)CN(C(=O)C3CC(F)(F)C3)C4)nc(Nc3ccc(-c4cn[nH]c4)cc3)c2C1	0.04
CC(C)NC(=O)c1cc2ccc(-c3nc(Cc4ccccc4)cc(Nc4ccc5[nH]ncc5c4)n3)cc2[nH]1	0.35
COc1cnc(-c2ccc3cc(C(=O)N4CC(F)(F)C4)[nH]c3c2)nc1Nc1ccc(-c2cn[nH]c2)cc1	0.023
COCCn1c(C(=O)N2CC(F)(F)C2)cc2ccc(-c3nccc(Nc4ccc(-c5cn[nH]c5)cc4)n3)cc21	0.355
O=C(C1CC(F)(F)C1)N1CCc2ccc(-c3nccc(Nc4ccc(-c5cn[nH]c5)cc4)n3)cc2C1	0.214
C[C@@H](NC(=O)c1cc2ccc(-c3nccc(Nc4ccc5[nH]ncc5c4)n3)cc2[nH]1)c1ccc(C(F)(F)F)nc1	0.09
O=C(C1CC(F)(F)C1)N1CCc2cc(-c3nccc(Nc4ccc(-c5cn[nH]c5)cc4)n3)ccc2C1	0.13
O=C(C1CCC(F)(F)CC1)N1CCc2ccc(-c3ncc(F)c(Nc4ccc(-c5cn[nH]c5)cc4)n3)cc2C1	0.477
O=C(NC1CCN(c2ccncc2Cl)CC1)c1cc2ccc(-c3nccc(Nc4ccc5[nH]ncc5c4)n3)cc2[nH]1	0.014
O=C(C1CC(F)(F)C1)N1Cc2ccc(-c3nc(Nc4ccc(-c5cn[nH]c5)cc4)c4occc4n3)cc2C1	0.018

Compound	IC50 [µM]
N=C(N)N1CCC2(CC1)CCN(C(=O)c1cc3ccc(-c4nccc(Nc5ccc6[nH]ncc6c5)n4)cc3[nH]1)CC2	0.24
O=C(C1CC(F)(F)C1)N1Cc2ccc(-c3nc4c(c(Nc5ccc(-c6cn[nH]c6)cc5)n3)CNC4)cc2C1	0.01
Cc1[nH]ncc1-c1ccc(Nc2nc(-c3ccc4c(c3)CN(C(=O)C3CC(F)(F)C3)C4)ncc2F)cc1	0.093
O=C(c1cc2ccc(-c3nccc(Nc4ccc(-c5cn[nH]c5)cc4)n3)cc2n1CC(F)F)N1CC(F)(F)C1	0.159
O=C(C1CCOCC1)N1Cc2ccc(-c3ncc(F)c(Nc4ccc(-c5cn[nH]c5)cc4)n3)cc2C1	0.162
COCn1c(C(=O)N2CC(F)(F)C2)cc2ccc(-c3ncnc(Nc4ccc(-c5cn[nH]c5)cc4)n3)cc21	0.427
O=C(N1CCc2ccc(-c3nccc(Nc4ccc(-c5cn[nH]c5)cc4)n3)cc2C1)N1CC(F)(F)C1	0.214
O=C(C1CC(F)(F)C1)N1Cc2ccc(-c3cncc(Nc4ccc(-c5cn[nH]c5)cc4)n3)cc2C1	0.039
Cn1c(C(=O)N2CC(F)(F)C2)cc2ccc(-c3nccc(Nc4ccc(-c5cn[nH]c5)cn4)n3)cc21	0.039
Cn1c(C(=O)N2CC(F)(F)C2)cc2ccc(-c3nc4c(c(Nc5ccc(-c6cn[nH]c6)cc5)n3)COC4)cc21	0.01
C#CC1CN(C(=O)c2cc3ccc(-c4nccc(Nc5ccc(-c6cn[nH]c6)cc5)n4)cc3n2C)C1	0.322
O=C(C1CC(F)(F)C1)N1Cc2ccc(-c3nc(Nc4ccc(-c5cn[nH]c5)cc4)c4sccc4n3)cc2C1	0.06
O=C(C1CC(F)(F)C1)N1Cc2ccc(-c3nc(Nc4ccc5[nH]ncc5c4)c4sccc4n3)cc2C1	0.129
O=C(c1cc2ccc(-c3nccc(Nc4ccc(-c5cn[nH]c5)cc4)n3)cc2[nH]1)N1CCCC1	0.24
O=C(c1cc2ccc(-c3nccc(Nc4ccc5[nH]ncc5c4)n3)cc2[nH]1)N1CC2CNCC2C1 (centres undefined)	0.412
Cn1ccc2nc(-c3ccc4cc(C(=O)N5CC(F)(F)C5)n(C)c4c3)nc(Nc3ccc(-c4cn[nH]c4)cc3)c21	0.076
Cn1c(C(=O)N2CC(F)(F)C2)cc2ccc(-c3nc(Nc4ccc(-c5cn[nH]c5)cc4)c4occc4n3)cc21	0.08
O=C(OC1CC(F)(F)C1)N1Cc2ccc(-c3ncc(F)c(Nc4ccc(-c5cn[nH]c5)cc4)n3)cc2C1	0.069
Cn1c(C(=O)N2CC(F)(F)C2)cc2ccc(-c3nc4c(c(Nc5ccc(-c6cn[nH]c6)cc5)n3)CNC4)cc21	0.004
Cn1c(C(=O)N2CC(F)(F)C2)cc2ccc(-c3nccc(Nc4ccc(-c5cn[nH]c5)nc4)n3)cc21	0.027
COCn1c(C(=O)N2CC(F)(F)C2)cc2ccc(-c3nc4c(c(Nc5ccc(-c6cn[nH]c6)cc5)n3)CNC4)cc21	0.027
COCn1c(C(=O)N2CC(F)(F)C2)cc2ccc(-c3ncc(F)c(Nc4ccc(-c5cn[nH]c5)cc4)n3)cc21	0.255
